Laboratory results published in ChEMBL document CHEMBL3259634, “Novel benzopolycyclic amines with NMDA receptor antagonist activity” (Bioorg Med Chem, 2014).

Target: Glutamate NMDA receptor
Experiment: Antagonist activity at NMDA receptor in primary culture of rat cerebellar granule neurons assessed as inhibition of NMDA-induced intracellular calcium level by fluorescence spectrophotometric analysis
Format: cell-based

SMILES	IC50 [µM]
CN(C)C12CC3CC(O)(CC(C1)c1ccccc13)C2	71.1
CN(C)C12CC3CC(F)(CC(C1)c1ccccc13)C2	16.5
COC12CC3CC(N)(CC(C1)c1ccccc13)C2	24.3
NC12CC3CC(C1)c1ccccc1C(C3)C2	0.7

Continued by falling IC50, values first:

IC50 [µM]	SMILES
16.2	NC12CC3CC(O)(CC(C1)c1ccccc13)C2
2.3	CN(C)C12CC3CC(C1)c1ccccc1C(C3)C2
1.93	NC12CC3CC(F)(CC(C1)c1ccccc13)C2
